Source: ChEMBL document CHEMBL1135579, “Serine-threonine protein phosphatase inhibitors: development of potential therapeutic strategies” (J Med Chem, 2002)
Numbered stars: 1 amine (or outer) side, 2 acyl side, 3 side chain; on linkers, the order of the positions; unused ones are H or OH. Bridge positions count the residues as written; N and C are the ends. Square brackets hold non-standard residues; d marks the D form. Peptide text beside a SMILES is read from it. Adda = CO[C@@H](Cc1ccccc1)[C@@H](C)/C=C(C)/C=C/[C@H](N[*:1])[C@H](C)C(=O)[*:2]; dAsp(3S-Me) = C[C@H](C(=O)[*:3])[C@@H](N[*:1])C(=O)[*:2]; d(γGlu) = O=C(O)[C@@H](CCC(=O)[*:2])N[*:1]; NMeDha = C=C(NC)C(=O)O

How the values were obtained:
Jurkat [1] = assay: Inhibition of production of beta-galactosidase thymidine kinase RGA in Jurkat cells; assay type: functional, cell-based; settings: Homo sapiens
[2] = Inhibition of growth after 72 hr continuous exposure to test compounds in Ovarian A2780 tumor cell lines; assay type: functional; settings: A2780, 72 h
[3] = Inhibition of growth after 72 hr continuous exposure to test compounds in Osteosarcoma 143B tumor cell lines; assay type: functional; settings: Homo sapiens
[4] = Inhibition of growth after 72 hr continuous exposure to test compounds in Ovarian ADDP tumor cell lines; assay type: functional
[5] = Inhibition of growth after 72 hr continuous exposure to test compounds in Colon HCT 116 tumor cell lines; assay type: functional; settings: Homo sapiens, HCT-116, 72 h
[6] = Inhibition of growth after 72 hr continuous exposure to test compounds in colon HT-29 tumor cell lines; assay type: functional; settings: Homo sapiens, HT-29, 72 h
Jurkat [7] = assay: Inhibition of production of beta-galactosidase IL-2 RGA in Jurkat cells; assay type: functional, cell-based; settings: Homo sapiens
[8] = Exogenous inhibition concentration of Serine/threonine protein phosphatase 2B (PP2B)
[9] = Exogenous inhibition of Serine/threonine protein phosphatase 1 (PP1); set-up: species or system Homo sapiens
[10] = Exogenous inhibition concentration of Serine/threonine protein phosphatase 2C (PP2C); NI means no inhibition.
[11] = biological target: T1, Serine/threonine-protein phosphatase PP1-gamma catalytic subunit (Homo sapiens, UniProt P36873); assay: Inhibition of Serine/threonine protein phosphatase 1 (PP1) mutants by natural toxins in wild type
Target sequence in this assay (P36873 2-323 limits assumed, stated change not applied): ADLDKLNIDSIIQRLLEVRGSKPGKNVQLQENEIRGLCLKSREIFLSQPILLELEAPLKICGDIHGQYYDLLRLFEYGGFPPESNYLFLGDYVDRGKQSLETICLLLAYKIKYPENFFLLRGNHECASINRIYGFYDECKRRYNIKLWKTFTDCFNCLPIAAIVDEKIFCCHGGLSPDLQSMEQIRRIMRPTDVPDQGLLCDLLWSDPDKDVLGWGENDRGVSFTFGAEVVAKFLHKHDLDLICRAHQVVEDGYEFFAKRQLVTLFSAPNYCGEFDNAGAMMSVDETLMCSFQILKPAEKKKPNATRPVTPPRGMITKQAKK

[12] = Exogenous inhibition concentration of Serine/threonine protein phosphatase 5 (PP5)
[13] = biological target: Serine/threonine-protein phosphatase PP1-gamma catalytic subunit (Homo sapiens, UniProt P36873, C127S); assay: Inhibition of Serine/threonine protein phosphatase 1 (PP1) mutants by natural toxins in C127S
Sequence of Serine/threonine-protein phosphatase PP1-gamma catalytic subunit (Homo sapiens, UniProt P36873, C127S) (P36873 2-323 C127S limits assumed): as the sequence (P36873 2-323 limits assumed, stated change not applied) above, with C126S counted along it

[14] = biological target: Serine/threonine-protein phosphatase PP1-gamma catalytic subunit (Homo sapiens, UniProt P36873, D208A); assay: Inhibition of Serine/threonine protein phosphatase 1 (PP1) mutants by natural toxins in D208A
Sequence of Serine/threonine-protein phosphatase PP1-gamma catalytic subunit (Homo sapiens, UniProt P36873, D208A) (P36873 2-323 D208A limits assumed): as the sequence (P36873 2-323 limits assumed, stated change not applied) above, with D207A counted along it

[15] = biological target: Serine/threonine-protein phosphatase PP1-gamma catalytic subunit (Homo sapiens, UniProt P36873, D220V); assay: Inhibition of Serine/threonine protein phosphatase 1 (PP1) mutants by natural toxins in D220V
Sequence of Serine/threonine-protein phosphatase PP1-gamma catalytic subunit (Homo sapiens, UniProt P36873, D220V) (P36873 2-323 D220V limits assumed): as the sequence (P36873 2-323 limits assumed, stated change not applied) above, with D219V counted along it

[16] = biological target: Serine/threonine-protein phosphatase PP1-gamma catalytic subunit (Homo sapiens, UniProt P36873, E275R); assay: Inhibition of Serine/threonine protein phosphatase 1 (PP1) mutants by natural toxins in E275R
Sequence of Serine/threonine-protein phosphatase PP1-gamma catalytic subunit (Homo sapiens, UniProt P36873, E275R) (P36873 2-323 E275R limits assumed): as the sequence (P36873 2-323 limits assumed, stated change not applied) above, with E274R counted along it

[17] = biological target: Serine/threonine-protein phosphatase PP1-gamma catalytic subunit (Homo sapiens, UniProt P36873, H248N); assay: Inhibition of Serine/threonine protein phosphatase 1 (PP1) mutants by natural toxins in H248N
Sequence of Serine/threonine-protein phosphatase PP1-gamma catalytic subunit (Homo sapiens, UniProt P36873, H248N) (P36873 2-323 H248N limits assumed): as the sequence (P36873 2-323 limits assumed, stated change not applied) above, with H247N counted along it

[18] = biological target: Serine/threonine-protein phosphatase PP1-gamma catalytic subunit (Homo sapiens, UniProt P36873, R221S); assay: Inhibition of Serine/threonine protein phosphatase 1 (PP1) mutants by natural toxins in R221S
Sequence of Serine/threonine-protein phosphatase PP1-gamma catalytic subunit (Homo sapiens, UniProt P36873, R221S) (P36873 2-323 R221S limits assumed): as the sequence (P36873 2-323 limits assumed, stated change not applied) above, with R220S counted along it

[19] = biological target: Serine/threonine-protein phosphatase PP1-gamma catalytic subunit (Homo sapiens, UniProt P36873, R96A); assay: Inhibition of Serine/threonine protein phosphatase 1 (PP1) mutants by natural toxins in R96A
Sequence of Serine/threonine-protein phosphatase PP1-gamma catalytic subunit (Homo sapiens, UniProt P36873, R96A) (P36873 2-323 R96A limits assumed): as the sequence (P36873 2-323 limits assumed, stated change not applied) above, with R95A counted along it

[20] = biological target: Serine/threonine-protein phosphatase PP1-gamma catalytic subunit (Homo sapiens, UniProt P36873, Y272F); assay: Inhibition of Serine/threonine protein phosphatase 1 (PP1) mutants by natural toxins in Y272F
Sequence of Serine/threonine-protein phosphatase PP1-gamma catalytic subunit (Homo sapiens, UniProt P36873, Y272F) (P36873 2-323 Y272F limits assumed): as the sequence (P36873 2-323 limits assumed, stated change not applied) above, with Y271F counted along it

[21] = Exogenous inhibition concentration of Serine/threonine protein phosphatase 4 (PP4)
[22] = biological target: Serine/threonine-protein phosphatase PP1-gamma catalytic subunit (Homo sapiens, UniProt P36873, N124D); assay: Inhibition of Serine/threonine protein phosphatase 1 (PP1) mutants by natural toxins in N124D
Sequence of Serine/threonine-protein phosphatase PP1-gamma catalytic subunit (Homo sapiens, UniProt P36873, N124D) (P36873 2-323 N124D limits assumed): as the sequence (P36873 2-323 limits assumed, stated change not applied) above, with N123D counted along it

Jurkat [23] = assay: Inhibition of production of IL-2 secretion in Jurkat cells; assay type: functional, cell-based; settings: Homo sapiens
[24] = Exogenous inhibition concentration of Serine/threonine protein phosphatase 2A (PP2A)
HCT-8 = assay: Reduction of tumor cell growth to 50% in Fostriecin analogues in HCT-8 colon cancer cell lines; assay type: functional; settings: Homo sapiens
L1210 = assay: Reduction of tumor cell growth to 50% in Fostriecin analogues in L1210 Leukemia cell lines; assay type: functional; settings: Mus musculus
[25] = biological target: T1, Serine/threonine-protein phosphatase PP1-gamma catalytic subunit; assay: Inhibition of Serine/threonine protein phosphatase 1 by anhydride modified Cantharidin analogues
Target sequence in this assay (P36873 whole entry): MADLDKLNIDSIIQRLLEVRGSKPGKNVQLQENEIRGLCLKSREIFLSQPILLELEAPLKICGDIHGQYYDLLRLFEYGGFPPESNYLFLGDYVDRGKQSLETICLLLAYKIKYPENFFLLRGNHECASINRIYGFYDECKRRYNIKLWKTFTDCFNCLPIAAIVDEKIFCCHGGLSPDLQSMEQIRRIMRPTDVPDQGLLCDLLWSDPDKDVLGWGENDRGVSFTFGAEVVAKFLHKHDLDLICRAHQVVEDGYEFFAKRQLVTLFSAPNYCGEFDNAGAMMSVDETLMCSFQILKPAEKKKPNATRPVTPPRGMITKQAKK

[26] = Exogenous inhibition concentration of Serine/threonine protein phosphatase 2C ([…])

O=C1OC(=O)C2C3CCC(O3)C12 (stereo unspecified)
IC50 (Jurkat [1]): 100 µM | GI50 [2]: 50 µM | GI50 [3]: 43 µM | GI50 [4]: 47 µM | GI50 [5]: 24 µM | GI50 [6]: 33 µM | IC50 (Jurkat [7]): > 22 µM

Cn1cc2c3c1C(=O)C1=C(C3=NCC2)C2(C=C(Br)C(=O)C(Br)=C2)CCN1 [DISCORHABDIN]
IC50 [8]: 1.15 µM

CCCOC1OC(=O)[C@H]2[C@@H]1[C@@H]1CC[C@H]2O1 (stereo partly specified)
GI50 [2]: 375 µM | GI50 [3]: > 1000 µM | GI50 [4]: 535 µM | GI50 [5]: 195 µM | GI50 [6]: 41 µM

COC(=O)C1C(C(=O)O)C2CC[C@H]1O2 (stereo partly specified)
GI50 [2]: 100 µM | GI50 [3]: 118 µM | GI50 [4]: 180 µM | GI50 [5]: 76 µM | GI50 [6]: 105 µM

C[C@@]12C(=O)OC(=O)[C@]1(C)[C@H]1CC[C@@H]2O1 [CANTHARIDIN]
GI50 [2]: 10 µM | GI50 [3]: 10 µM | GI50 [4]: 11 µM | IC50 [8]: > 1000 µM | IC50 [9]: 0.5 µM | GI50 [5]: 9 µM | GI50 [6]: 6.4 µM

C/C=C1/C(=O)C[C@@H](C(=O)O)[C@H](C)C(=O)N[C@@H](C(C)C)C(=O)N[C@@H](/C=C/C(C)=C/[C@H](C)[C@H](Cc2ccccc2)OC)[C@H](C)C(=O)N[C@@H](C(=O)O)CCC(=O)N1C
IC50 [8]: 8700 µM | IC50 [10]: no inhibition | IC50 [9]: 0.0018 µM

C=C1C(=O)N[C@H](C)C(=O)N[C@@H](CC(C)C)C(=O)N[C@@H](C(=O)O)[C@H](C)C(=O)N[C@@H](CCCNC(=N)N)C(=O)N[C@@H](/C=C/C(C)=C/[C@H](C)[C@H](Cc2ccccc2)OC)[C@H](C)C(=O)N[C@@H](C(=O)O)CCC(=O)N1C [MICROCYSTIN-LR] (R[Adda][d(γGlu)][NMeDha][dA]L[dAsp(3S-Me)]-OH; lactam N-7)
IC50 [11]: 0.02 nM | IC50 [12]: > 0.001 µM | IC50 [10]: no inhibition | IC50 [13]: 0.00056 µM | IC50 [14]: 0.0019 µM | IC50 [15]: 0.02 nM | IC50 [16]: 0.01 nM | IC50 [17]: 0.035 µM | IC50 [18]: 0.029 µM | IC50 [19]: 0.035 µM | IC50 [20]: 0.0008 µM | IC50 [21]: 8 pM | IC50 [22]: 0.2 µM

C/C=C/C[C@@H](C)[C@@H](O)[C@H]1C(=O)N[C@@H](CC)C(=O)N(C)CC(=O)N(C)[C@@H](CC(C)C)C(=O)N[C@@H](C(C)C)C(=O)N(C)[C@@H](CC(C)C)C(=O)N[C@@H](C)C(=O)N[C@H](C)C(=O)N(C)[C@@H](CC(C)C)C(=O)N(C)[C@@H](CC(C)C)C(=O)N(C)[C@@H](C(C)C)C(=O)N1C [CYCLOSPORINE]
IC50 (Jurkat [23]): 0.007 µM | IC50 (Jurkat [1]): > 1 µM | IC50 (Jurkat [7]): 0.008 µM

C[C@]12C(=O)OC(=O)[C@H]1C1CC[C@H]2O1 [PALASONIN]
IC50 [24]: 0.12 µM | IC50 [9]: 0.7 µM

C[C@@](O)(/C=C/[C@H]1CC=CC(=O)O1)[C@H](O)C[C@@H](O)\C=C/C=C\C=C\CO
GI50 (HCT-8): 3.7 µM | GI50 (L1210): 2.5 µM

COC1OC(=O)[C@H]2[C@@H]1[C@@H]1CC[C@H]2O1 (stereo partly specified)
GI50 [2]: 538 µM | GI50 [3]: > 1000 µM | GI50 [4]: 323 µM | IC50 [25]: > 1000 µM | GI50 [5]: 143 µM | GI50 [6]: 28 µM

CO[C@H]([C@H](O)CC(=O)[C@@H](C)[C@@H](O)CC[C@@H](C)[C@@H]1O[C@]2(CC[C@@H](C)[C@H](CC[C@H](C)C(C)=O)O2)CC[C@@H]1C)[C@H](OC(=O)C[C@@H](O)C1=C(C)C(=O)OC1=O)C(C)C [TAUTOMYCIN]
IC50 [24]: 0.0007 µM | IC50 [26]: 70000 µM | IC50 [10]: no inhibition | IC50 [9]: 0.0007 µM

C/C=C/C=C\C=C/[C@H](O)C[C@@H](OP(=O)(O)O)[C@](C)(O)/C=C/[C@H]1CC=CC(=O)O1
GI50 (HCT-8): 1.5 µM | GI50 (L1210): 0.22 µM

CC[C@@H](C)[C@H]1NC(=O)[C@H]([C@@H](C)CC)NC(=O)[C@H]([C@@H](C)CC)NC(=O)[C@H]([C@@H](C)CC)NC(=O)[C@@H](Cc2ccccc2)NC(=O)[C@H](Cc2ccccc2)NC(=O)[C@@H]2CCCN2C(=O)[C@@H]2CCCN2C(=O)[C@H](C(C)C)NC1=O
IC50 [8]: 5 µM

COC[C@@H]([C@H](O)[C@H](O)C(=O)NCC[C@H](C)c1nc(/C=C/C[C@@H]2O[C@]3(C[C@@H](O)[C@@H]2C)O[C@H]([C@H](C[C@H](O)[C@H](C)[C@H](O)[C@H](C)/C=C(C)/C(C)=C/C=C/C(C)=C\C#N)OC)[C@H](OP(=O)(O)O)C3(C)C)co1)N(C)C [CALYCULIN A]
IC50 [11]: 0.45 nM | IC50 [12]: < 0.003 µM | IC50 [24]: 0.0002 µM | IC50 [8]: > 10000 µM | IC50 [10]: no inhibition | IC50 [13]: 0.0022 µM | IC50 [14]: > 0.5 µM | IC50 [15]: 0.14 nM | IC50 [16]: 0.4 nM | IC50 [17]: > 0.5 µM | IC50 [18]: > 0.5 µM | IC50 [19]: 0.058 µM | IC50 [20]: 0.048 µM | IC50 [9]: 0.0003 µM | IC50 [22]: > 0.5 µM
